GI50 and IC50 data for twelve compounds are collected here from patent US10364247B2, “Preparation and use of novel protein kinase inhibitors” (Ruijin Hospital Affiliated to Shanghai Jiao Tong University …, priority 2015, dated 2019).

For orientation: IC50 means the concentration needed to halve the response being measured.

Common to all, as to type: cell-based, murine
In one test the target is T1, BaF3-EML4-ALK (Homo sapiens, UniProt Q9UM73).
T1 construct: fused on or other part: Q9HC35 (Echinoderm microtubule-associated protein-like 4)
T1 sequence (Q9UM73 whole entry, change not shown, the tested form may be a part): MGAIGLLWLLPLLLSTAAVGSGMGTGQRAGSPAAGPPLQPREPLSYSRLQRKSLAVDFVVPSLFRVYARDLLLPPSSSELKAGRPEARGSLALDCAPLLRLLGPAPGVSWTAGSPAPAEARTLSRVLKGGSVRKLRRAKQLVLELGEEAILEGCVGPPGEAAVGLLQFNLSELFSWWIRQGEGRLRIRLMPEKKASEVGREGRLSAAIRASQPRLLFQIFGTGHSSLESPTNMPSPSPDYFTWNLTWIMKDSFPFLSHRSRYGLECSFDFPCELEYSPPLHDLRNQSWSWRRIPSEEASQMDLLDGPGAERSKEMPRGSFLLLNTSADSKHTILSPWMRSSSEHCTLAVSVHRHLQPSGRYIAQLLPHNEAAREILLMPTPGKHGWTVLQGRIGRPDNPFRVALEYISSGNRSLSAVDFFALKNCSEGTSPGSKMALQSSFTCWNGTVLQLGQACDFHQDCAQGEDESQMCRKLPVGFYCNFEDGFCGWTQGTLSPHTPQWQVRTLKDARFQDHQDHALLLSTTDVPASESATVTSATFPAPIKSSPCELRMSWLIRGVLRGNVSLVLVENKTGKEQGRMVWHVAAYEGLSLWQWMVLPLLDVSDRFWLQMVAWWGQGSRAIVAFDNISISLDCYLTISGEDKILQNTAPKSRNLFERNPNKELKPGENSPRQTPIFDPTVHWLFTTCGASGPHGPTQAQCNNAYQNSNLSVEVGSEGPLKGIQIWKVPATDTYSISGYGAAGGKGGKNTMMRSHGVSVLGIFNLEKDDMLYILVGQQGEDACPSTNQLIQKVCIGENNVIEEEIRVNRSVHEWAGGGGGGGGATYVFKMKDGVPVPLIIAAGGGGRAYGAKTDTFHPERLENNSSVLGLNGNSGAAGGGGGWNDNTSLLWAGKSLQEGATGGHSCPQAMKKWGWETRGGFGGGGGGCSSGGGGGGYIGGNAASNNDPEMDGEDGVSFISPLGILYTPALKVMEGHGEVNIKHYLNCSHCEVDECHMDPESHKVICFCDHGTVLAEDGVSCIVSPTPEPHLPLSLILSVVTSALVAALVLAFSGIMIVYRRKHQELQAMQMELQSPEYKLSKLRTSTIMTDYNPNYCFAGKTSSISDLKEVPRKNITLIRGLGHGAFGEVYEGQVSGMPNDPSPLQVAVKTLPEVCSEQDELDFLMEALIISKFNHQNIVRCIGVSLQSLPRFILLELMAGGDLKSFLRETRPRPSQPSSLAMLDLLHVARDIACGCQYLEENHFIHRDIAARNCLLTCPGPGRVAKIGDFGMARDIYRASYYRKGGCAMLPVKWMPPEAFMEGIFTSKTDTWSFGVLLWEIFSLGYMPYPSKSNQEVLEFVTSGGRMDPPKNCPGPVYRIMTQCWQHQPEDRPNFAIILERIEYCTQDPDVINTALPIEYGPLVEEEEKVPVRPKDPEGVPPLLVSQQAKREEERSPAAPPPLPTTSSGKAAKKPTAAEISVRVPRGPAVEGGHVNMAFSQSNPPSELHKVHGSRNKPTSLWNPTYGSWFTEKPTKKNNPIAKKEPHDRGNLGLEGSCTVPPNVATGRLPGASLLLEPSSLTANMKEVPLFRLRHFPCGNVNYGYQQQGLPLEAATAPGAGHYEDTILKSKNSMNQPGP
The test is described as follows: Antiproliferative activity, kinase-dependent Ba/F3 cells (MTT/MTS). The note with it: 48 hours, cell viability, read-out: EML4-ALK IC50. The protocol: (§1) Following up on the kinome data, the ability of compounds disclosed in the present invention to inhibit proliferation of cells that are dependent on selected protein kinases was tested. […] In addition, compounds were assayed to measure their capacity to inhibit TIE1, LYN, EML4-ALK, INSR and HCK kinases.
(§2) The murine cell line used is the BaF/3 cell line transformed with BCR/ABL cDNA (BaF/3-p210) or BCR/ABL-T315I mutant (Ba/F3-p210-T315I). These cells are maintained in RPMI/10% fetal calf serum (RPMI/FCS) supplemented with penicillin 50 μg/mL, streptomycin 50 μg/mL and L-glutamine […]. Untransformed BaF/3 cells (Wt-BaF/3) are similarly maintained with the addition of 15% of WEHI conditioned medium as a source of IL3.
(§3) Cells were seeded at a density of 20,000 cells/well into 96-well plates.
(§4) The background control wells to which media with no cells added and the vehicle control wells were included on each plate in triplicate. Cell viability was determined using MTT (Sigma, St. Louis, Mo., USA) and MTS (Promega, Madison, Wis., USA), according to the manufacturer's instructions. Results were analyzed using GraphPad Prism 5.0 (GraphPad Software, San Diego, Calif.) and IC50 values were calculated from cell viability dose-response curves and defined as the concentration of compound needed to reduce cell viability to 50% of a vehicle control (DMSO) (Table 3).
(§5) Cell proliferation assays of compounds of the invention against TIE1, LYN, EML4-ALK, INSR and Hck were conducted using identical methods as described above for BCR/ABL, except that BaF3-TEL-TIE1, BaF3-TEL-LYN, BaF3-EML4-ALK, BaF3-TEL-INSR, and BaF3-TEL-HCK are used instead of BaF3-BCR/ABL (Table 3 and 4).

The next test addresses T2, BaF3-TEL-LYN (Homo sapiens, UniProt P07948).
T2 construct: fused on or other part: P41212 (Transcription factor ETV6)
Described as above. Conditions: 48 hours, cell viability, read-out: tel-LYN IC50. The protocol: as §1, §2, §3, §4, §5

The target in the next test is T3, BaF3-TEL-TIE1 (Homo sapiens, UniProt P35590).
T3 construct: fused on or other part: P41212 (Transcription factor ETV6)
T3 sequence (P35590 whole entry, change not shown, the tested form may be a part): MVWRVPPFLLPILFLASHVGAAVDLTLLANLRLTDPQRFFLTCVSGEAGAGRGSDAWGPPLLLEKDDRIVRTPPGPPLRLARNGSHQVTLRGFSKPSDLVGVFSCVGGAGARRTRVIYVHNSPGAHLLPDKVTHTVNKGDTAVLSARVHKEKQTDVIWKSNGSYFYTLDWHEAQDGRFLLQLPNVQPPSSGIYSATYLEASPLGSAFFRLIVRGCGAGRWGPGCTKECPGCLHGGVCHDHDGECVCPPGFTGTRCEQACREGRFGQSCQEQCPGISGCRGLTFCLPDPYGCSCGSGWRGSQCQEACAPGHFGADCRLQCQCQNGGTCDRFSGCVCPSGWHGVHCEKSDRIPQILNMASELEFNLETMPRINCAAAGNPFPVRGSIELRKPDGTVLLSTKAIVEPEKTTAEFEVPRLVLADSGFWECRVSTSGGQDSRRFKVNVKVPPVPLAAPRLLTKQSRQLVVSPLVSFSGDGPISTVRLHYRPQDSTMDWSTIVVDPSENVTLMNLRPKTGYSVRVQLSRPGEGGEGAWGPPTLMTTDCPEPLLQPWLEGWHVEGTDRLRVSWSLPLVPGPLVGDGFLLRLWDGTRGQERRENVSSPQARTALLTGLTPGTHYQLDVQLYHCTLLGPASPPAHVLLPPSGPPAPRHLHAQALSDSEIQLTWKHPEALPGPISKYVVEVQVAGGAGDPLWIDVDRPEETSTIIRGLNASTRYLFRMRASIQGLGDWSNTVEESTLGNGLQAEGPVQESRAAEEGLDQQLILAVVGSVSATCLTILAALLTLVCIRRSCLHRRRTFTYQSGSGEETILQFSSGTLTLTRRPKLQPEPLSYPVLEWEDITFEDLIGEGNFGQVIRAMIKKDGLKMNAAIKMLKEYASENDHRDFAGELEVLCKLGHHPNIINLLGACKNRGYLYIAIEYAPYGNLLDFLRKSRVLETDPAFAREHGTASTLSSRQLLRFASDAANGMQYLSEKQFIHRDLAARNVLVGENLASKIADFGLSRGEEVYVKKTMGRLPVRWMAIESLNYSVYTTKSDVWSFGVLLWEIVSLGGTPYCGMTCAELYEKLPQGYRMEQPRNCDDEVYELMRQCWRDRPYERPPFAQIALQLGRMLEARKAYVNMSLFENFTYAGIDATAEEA
The test is described as above. Conditions: 48 hours, cell viability, read-out: tel-TIE1 IC50. The protocol: as §1, §2, §3, §4, §5

For a further test, the system named is Wt-BaF3. The test is described as follows: Parental Ba/F3 cell proliferation (CellTiter Glo). Conditions: Mus musculus, parental BaF/3 cells, 48 hours. The protocol:
as §2
(§6) The BaF/3 cell line transformed with oncogenic NRAS or KRAS (BaF/3-NRASD12 or BaF/3-KRASD12) and the parental BaF/3 cells were used to measure the abilities of compounds of the invention to suppress RAS transformation (Table 5). Cells were seeded at a density of 5000 cells/well into 96-well plates. […] The background control wells to which media with no cells added and the vehicle control wells were included on each plate in triplicate. Cell viability was determined using CellTiter Glo Assay (Promega) according to manufacture's instruction with a minor modification of diluting 1 part CellTiter Glo reagent to 4 parts phosphate buffered saline (PBS) before use. The luminescence value was read out by an Envision (PerkinElmer).
For orientation: ATP-based viability assays read luminescence as a measure of living cells.

The target in another test is T4, BaF3-BCR/ABL-T315I (Homo sapiens, UniProt P00519, T315I, cells depend on it).
T4 construct: fused on or other part: P11274 (Breakpoint cluster region protein)
The test is described as follows: Antiproliferative activity, kinase-dependent Ba/F3 cells (MTT/MTS). Conditions: 48 hours, cell viability, read-out: BCR/ABL T315I IC50. The protocol:
as §1, §2, §3, §4

For the next test, the target named is T5, BaF3-BCR/ABL (Homo sapiens, UniProt P00519).
T5 construct: fused on or other part: P11274 (Breakpoint cluster region protein)
The test is described as above. The note with it: 48 hours, cell viability, read-out: BCR/ABL IC50. The protocol: as §1, §2, §3, §4

A further test concerns BaF3-NRASD12. The test is described as follows: Oncogenic RAS dependent cell proliferation (CellTiter Glo). The note with it: Mus musculus, BaF3-NRASD12 cells, 48 hours, read-out: NRas-BaF3 IC50. The protocol:
as §6

The test system of a further test is BaF3-KRASD12. The test is described as above. The note with it: Mus musculus, BaF3-KRASD12 cells, 48 hours, read-out: KRas-BaF3 IC50. The protocol:
as §6

T2 sequence (P07948 whole entry, change not shown, the tested form may be a part): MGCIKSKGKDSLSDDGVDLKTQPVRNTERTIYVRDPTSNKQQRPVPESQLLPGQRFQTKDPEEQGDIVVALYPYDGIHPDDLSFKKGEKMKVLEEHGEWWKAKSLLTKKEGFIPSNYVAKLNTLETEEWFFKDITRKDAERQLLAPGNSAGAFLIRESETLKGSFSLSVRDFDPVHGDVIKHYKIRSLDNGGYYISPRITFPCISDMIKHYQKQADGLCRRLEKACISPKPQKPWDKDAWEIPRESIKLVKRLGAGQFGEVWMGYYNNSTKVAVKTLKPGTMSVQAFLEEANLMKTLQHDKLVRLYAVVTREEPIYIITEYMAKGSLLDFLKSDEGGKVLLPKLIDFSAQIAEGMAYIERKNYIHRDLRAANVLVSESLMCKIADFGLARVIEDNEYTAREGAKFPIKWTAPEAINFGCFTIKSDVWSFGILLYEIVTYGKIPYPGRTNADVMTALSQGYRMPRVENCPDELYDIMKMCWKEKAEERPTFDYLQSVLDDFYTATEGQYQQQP

On to `Cc1ccc(NC(=O)c2cccc(C(F)(F)F)c2)cc1N1Cc2cnc(N[C@H](C)CO)nc2N(C)C1` [IA-7, (R)—N-(3-(7-((1-hydroxypropan-2-yl)amino)-1-methyl-1,4-dihydropyrimido[4,5-d]pyrimidin-3(2H)-yl)-4-methylphenyl)-3-(trifluoromethyl)benzamide], for which the GI50 at BaF3-EML4-ALK was 7.47 µM; at BaF3-TEL-LYN, 4.48 µM; at BaF3-TEL-TIE1 it was 4.22 µM; at BaF3-BCR/ABL-T315I, more than 10 µM; on BaF3-BCR/ABL, 0.665 µM. Moreover, the IC50 came to 24.4 µM in the test on Wt-BaF3, 8.28 µM with BaF3-NRASD12 and 8.1 µM with BaF3-KRASD12.
For the compound `CNc1ncc2c(n1)N(C)CN(c1cc(NC(=O)c3cccc(C(F)(F)F)c3)ccc1C)C2` [IA-3, N-(4-methyl-3-(1-methyl-7-(methylamino)-1,4-dihydropyrimido[4,5-d]pyrimidin-3(2H)-yl)phenyl)-3-(trifluoromethyl)benzamide], the GI50 at BaF3-EML4-ALK was 6.34 µM; at BaF3-TEL-LYN, 4.09 µM; on BaF3-TEL-TIE1, 5.47 µM; at BaF3-BCR/ABL-T315I, more than 10 µM; at BaF3-BCR/ABL, 1.04 µM. The results for the IC50 with Wt-BaF3, with BaF3-NRASD12 and in the test with BaF3-KRASD12 were 12.5 µM, 11.5 µM and 6.47 µM, respectively.
On to `Cc1ccc(NC(=O)c2cccc(C(F)(F)F)c2)cc1N1Cc2cnc(N[C@@H](C)CO)nc2N(C)C1` [IA-8, (S)—N-(3-(7-((1-hydroxypropan-2-yl)amino)-1-methyl-1,4-dihydropyrimido[4,5-d]pyrimidin-3(2H)-yl)-4-methylphenyl)-3-(trifluoromethyl)benzamide], for which the GI50 at BaF3-EML4-ALK was 9.22 µM; at BaF3-TEL-LYN, 2.5 µM; at BaF3-TEL-TIE1, 3.65 µM; on BaF3-BCR/ABL-T315I it was more than 10 µM; at BaF3-BCR/ABL it was 1.94 µM. Further, the IC50 amounted to 17.9 µM in the test with Wt-BaF3, 5.21 µM with BaF3-NRASD12 and 7.57 µM in the test on BaF3-KRASD12.
Turning to `Cc1ccc(Nc2ncc3c(n2)N(C)CN(c2cc(C(=O)NCCO)ccc2C)C3)cn1` [IC-2, N-(2-hydroxyethyl)-4-methyl-3-(1-methyl-7-((6-methylpyridin-3-yl)amino)-1,4-dihydropyrimido[4,5-d]pyrimidin-3(2H)-yl)benzamide], the GI50 at BaF3-EML4-ALK is more than 10 µM; at BaF3-TEL-LYN, more than 10 µM; on BaF3-TEL-TIE1, more than 10 µM; at BaF3-BCR/ABL-T315I it was more than 10 µM; at BaF3-BCR/ABL, 6.36 µM. Besides, the IC50 with Wt-BaF3, in the test with BaF3-NRASD12 and in the test with BaF3-KRASD12 was more than 10 µM throughout.
As for `COc1ccc(NC(=O)c2cccc(C(F)(F)F)c2)cc1N1Cc2cnc(Nc3ccc(C)nc3)nc2N(C)C1` [IC-6, N-(4-methoxy-3-(1-methyl-7-((6-methylpyridin-3-yl)amino)-1,4-dihydropyrimido[4,5-d]pyrimidin-3(2H)-yl)phenyl)-3-(trifluoromethyl)benzamide], the GI50 on BaF3-EML4-ALK was approximately 9.03 µM; at BaF3-TEL-LYN, approximately 8.23 µM; at BaF3-TEL-TIE1, 5.18 µM; on BaF3-BCR/ABL-T315I, 8 µM; on BaF3-BCR/ABL, 0.387 µM. Further, the IC50 was found to be 22.8 µM in the test on Wt-BaF3, 8.15 µM in the test on BaF3-NRASD12 and 10.3 µM in the test with BaF3-KRASD12.
As for `Cc1ccc(NC(=O)c2cccc(C(F)(F)F)c2)cc1N1Cc2cnc(NCCc3c[nH]cn3)nc2N(C)C1` [IA-6, N-(3-(7-((2-(1H-imidazol-4-yl)ethyl)amino)-1-methyl-1,4-dihydropyrimido[4,5-d]pyrimidin-3(2H)-yl)-4-methylphenyl)-3-(trifluoromethyl)benzamide], the GI50 at BaF3-EML4-ALK was approximately 3.36 µM; at BaF3-TEL-LYN it was approximately 3.21 µM; on BaF3-TEL-TIE1 it was 3.7 µM; at BaF3-BCR/ABL-T315I, 4.45 µM; at BaF3-BCR/ABL, 2.22 µM. In addition, the IC50 in the test on Wt-BaF3 is 5.14 µM; with BaF3-NRASD12 it was 5.5 µM; with BaF3-KRASD12, 5.53 µM.
As for `Cc1ccc(Nc2ncc3c(n2)N(C)CN(c2cc(C(=O)NCCN4CCOCC4)ccc2C)C3)cn1` [IC-3, 4-methyl-3-(1-methyl-7-((6-methylpyridin-3-yl)amino)-1,4-dihydropyrimido[4,5-d]pyrimidin-3(2H)-yl)-N-(2-morpholinoethyl)benzamide], the GI50 at BaF3-EML4-ALK is more than 10 µM; at BaF3-TEL-LYN, more than 10 µM; at BaF3-TEL-TIE1, more than 10 µM; on BaF3-BCR/ABL-T315I it was more than 10 µM; at BaF3-BCR/ABL, 0.217 µM. Moreover, the IC50 with Wt-BaF3, in the test on BaF3-NRASD12 and in the test with BaF3-KRASD12 was more than 10 µM throughout.
Take `Cc1ccc(NC(=O)c2cccc(C(F)(F)F)c2)cc1N1Cc2cnc(NC3CCN(C)CC3)nc2N(C)C1` [IA-1, N-(4-methyl-3-(1-methyl-7-((1-methylpiperidin-4-yl)amino)-1,4-dihydropyrimido[4,5-d]pyrimidin-3(2H)-yl)phenyl)-3-(trifluoromethyl)benzamide]: the GI50 is 1.53 µM at BaF3-EML4-ALK; approximately 2.79 µM at BaF3-TEL-LYN; 1.75 µM at BaF3-TEL-TIE1; 4.15 µM at BaF3-BCR/ABL-T315I; 4.28 µM on BaF3-BCR/ABL. The IC50 in the test on Wt-BaF3 stood at 8.83 µM; in the test with BaF3-NRASD12, 5.22 µM; with BaF3-KRASD12 it was 10.1 µM.
As for `Cc1ccc(NC(=O)c2cccc(C(F)(F)F)c2)cc1N1Cc2cnc(NC3CC3)nc2N(C)C1` [IA-4, N-(3-(7-(cyclopropylamino)-1-methyl-1,4-dihydropyrimido[4,5-d]pyrimidin-3(2H)-yl)-4-methylphenyl)-3-(trifluoromethyl)benzamide], the GI50 turned out to be 6.79 µM on BaF3-EML4-ALK; 1.32 µM on BaF3-TEL-LYN; 4.97 µM on BaF3-TEL-TIE1; 9.72 µM at BaF3-BCR/ABL-T315I; 0.956 µM on BaF3-BCR/ABL. Moreover, the IC50 with Wt-BaF3 amounted to 11.3 µM; in the test with BaF3-NRASD12 it was 9.56 µM; in the test on BaF3-KRASD12, 8.33 µM.
On to `Cc1ccc(NC(=O)c2cccc(C(F)(F)F)c2)cc1N1Cc2cnc(Nc3ccc(N4CCN(C)CC4)nc3)nc2N(C)C1` [IA-14, N-(4-methyl-3-(1-methyl-7-((6-(4-methylpiperazin-1-yl)pyridin-3-yl)amino)-1,4-dihydropyrimido[4,5-d]pyrimidin-3(2H)-yl)phenyl)-3-(trifluoromethyl)benzamide], for which the results for the IC50 in the test on Wt-BaF3, in the test on BaF3-NRASD12 and in the test on BaF3-KRASD12 were 3.67 µM, 1.53 µM and 1.46 µM, respectively.
Regarding `Cc1ccc(Nc2ncc3c(n2)N(C)CN(c2cccc(NC(=O)c4cccc(C(F)(F)F)c4)c2)C3)cn1` [IC-5, N-(3-(1-methyl-7-((6-methylpyridin-3-yl)amino)-1,4-dihydropyrimido[4,5-d]pyrimidin-3(2H)-yl)phenyl)-3-(trifluoromethyl)benzamide], the GI50 on BaF3-EML4-ALK is more than 10 µM; on BaF3-TEL-LYN, more than 10 µM; at BaF3-TEL-TIE1, 9.29 µM; at BaF3-BCR/ABL-T315I, more than 10 µM; at BaF3-BCR/ABL, 0.94 µM. Besides, the values for the half-maximal inhibitory concentration (IC50) with Wt-BaF3, with BaF3-NRASD12 and in the test on BaF3-KRASD12 were 29.3 µM, more than 10 µM and more than 10 µM, respectively.
For `Cc1ccc(Nc2ncc3c(n2)N(C)CN(c2cc(C(=O)Nc4cccc(C(F)(F)F)c4)ccc2C)C3)cn1` [IC-1, 4-methyl-3-(1-methyl-7-((6-methylpyridin-3-yl)amino)-1,4-dihydropyrimido[4,5-d]pyrimidin-3(2H)-yl)-N-(3-(trifluoromethyl)phenyl)benzamide], the GI50 at BaF3-EML4-ALK turned out to be 1.65 µM; on BaF3-TEL-LYN, 0.189 µM; on BaF3-TEL-TIE1 it was 0.0912 µM; at BaF3-BCR/ABL-T315I, 0.196 µM; at BaF3-BCR/ABL, 0.00693 µM. Also, the figures for the 50% inhibitory concentration (IC50) in the test on Wt-BaF3, in the test on BaF3-NRASD12 and with BaF3-KRASD12 were 5.36 µM, 1.57 µM and 1.69 µM, respectively.
